Marks after values point to notes of the source that are not given here.
Assays:
[1] = tested on: rat caudal artery; test: Rat caudal artery ring contractile force (vasoconstrictory activity); parameters: species or system rat (male Wistar)
How it was run: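 Endothelium-denuded caudal artery rings from male Wistar rats were held at 2 g resting tension in Tyrode solution (37° C, pH 7.35, 95% O2/CO2) and isometric force was recorded. Compounds were tested at 50 μM, with contraction expressed as percent of the 90 mM KCl response.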

[2] = Simulated gastric fluid (SGF) hydrolytic stability assay; format: physicochemical; conditions: simulated gastric fluid without pepsin, pH 1.2, 37° C., 1 h, n = 3; for % NRB released, Hydrolytic Stability (simulated gastric fluid): footnote c: compounds not exhibiting vasoconstriction
How it was run: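 Compounds at 200 μM final (2.5% DMSO) were held 1 h at 37 °C in pepsin-free USP simulated gastric fluid (0.03 M NaCl, pH 1.2 with HCl), n=3. […] was quantified by RP-LCMS.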

[3] = Rat serum assay (release of NRB or NRB analogue); format: in vitro ADME; conditions: 80% rat serum, 37° C., 3 h, n = 3
How it was run: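 Compound (200 μM final) incubated in 80% rat serum diluted with 0.1 M phosphate pH 7.4, 2.5% DMSO, 37 °C for 3 h, n=3, then quenched in ice-cold acetonitrile. NRB or analogue release was quantified by RP-LCMS against external calibration curves, expressed as percent released.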

[4] = Rat liver S9 fraction assay (release of NRB or NRB analogue); format: in vitro ADME, rat (male Sprague-Dawley); conditions: 1 mg/mL rat liver S9 fraction, 37° C., 6 h, n = 3
Description: The hydrolytic stability of compounds of the invention was also evaluated in vitro using rat liver S9 fraction (20 mg/mL), pooled from male rat (Sprague-Dawley), obtained from Sigma-Aldrich, diluted to 1 mg/mL with phosphate buffer (0.1 M, pH 7.4) and stored at −78° C. Similar assay conditions to those reported by Li Di and co-workers (Int. J. Pharm. 2005, 297, 110-119) were followed [200 μL total volume, 1 mg/mL rat liver S9 fraction (diluting with phosphate buffer (0.1 M, pH 7.4)), at a final compound concentration of 200 μM, 2.5% DMSO overall, 37° C., 6 h, n=3]. The assay protocol followed is as that described above for the rat serum assay, with an adjusted end-point of 6 h.

[5] = tested on: Sprague Dawley rats; test: In vivo lethality, oral gavage; parameters: species or system rat (Sprague Dawley); conditions: rat; for Time to Death (min) / Onset of Symptoms: mean time; for Onset of Symptoms: visual signs of distress consistent with NRB-like symptoms; for In vivo lethality (oral): n = 2
How it was run: (§1)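 Sprague Dawley rats (150-200 g) received compound dissolved in 0.2 M HCl (5% DMSO overall) at the desired dose, by oral gavage or tail-vein i.v. injection. Animals were watched for early toxicity signs every minute (i.v.) or every 15 min (oral).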

[6] = tested on: Sprague Dawley rats; test: Palatability (no-choice) trial, peanut butter bait; format: in vivo, rat (Sprague Dawley); conditions: 1% w/w toxicant in peanut butter bait
Excerpt: In the palatability trials, Sprague Dawley rats (ca. 250 g) were presented with 1% w/w compound (n=6) or 0.5% w/w compound (n=5) in a peanut butter bait, following 3 days ‘pre-baiting’ with a peanut butter formulation free of toxicant.

[7] = tested on: Sprague Dawley rats; test: In vivo lethality, intravenous injection via the tail; parameters: species or system rat (Sprague Dawley); conditions: rat
How it was run: as §1

[8] = tested on: Sprague Dawley rats; test: Palatability (choice) trial, peanut butter bait; format: in vivo, rat (Sprague Dawley); conditions: 2 days, n = 12
[9] = Table 5, compounds of formula (III)

Compound | Vasoconstriction: maximum contractile effect as a % of 90 mM KCl contraction ([1]; Table 1, compound at 50 μM) [%] | Vasoconstriction: maximum contractile effect as a % of 90 mM KCl contraction ([1]; Table 4, pre-cleavage, n = 3) [%] | % NRB released, Hydrolytic Stability (simulated gastric fluid) [2] | % NRB released, Rat Serum [3] [%] | % NRB released, Rat Liver S9 [4] [%] | Time to Death (min) ([5]; 20 mg/Kg) | Onset of Symptoms ([5]; 20 mg/Kg) [min] | No of deaths ([6]; n = 6, 3 male and 3 female rats, Table 11) | Emax ([1]; Table 1, read-out: Vasoconstriction: maximum contractile effect as a % of 90 mM KCl contraction) [%] | In vivo lethality (i.v.) ([7]; 20 mg/Kg, n = 2) | In vivo lethality (oral) ([5]; 20 mg/Kg) | In vivo lethality (oral) ([5]; 40 mg/Kg) | No of deaths ([6]; n = 6, male rats only, Table 10) | No of deaths ([8]; choice of EPA diet (20 g) and bait with 1% w/w toxicant (20 g), Table 14) | No of deaths ([8]; choice of standard lab pellets (20 g) and bait with 1% w/w toxicant (20 g), Table 13) | Vasoconstriction: maximum contractile effect as a % of 90 mM KCl contraction [1, 9] [%] | Vasoconstriction: maximum contractile effect as a % of 90 mM KCl contraction ([1]; n = 3, pre-cleavage, Table 6) [%] | % NRB released, Hydrolytic Stability [2] [%] | In vivo lethality (i.v.) ([7]; 10 mg/Kg, n = 2, Table 6) | In vivo lethality (i.v.) ([7]; 20 mg/Kg, n = 2, Table 6)
CCCCCCCC(=O)OCCN1C(=O)C2C3C=C(C(O)(c4ccccc4)c4ccccn4)C(C3=C(c3ccccc3)c3ccccn3)C2C1=O (stereo not drawn) [Compound 111, 5-(α-Hydroxy-α-2-pyridylbenzyl)-N-2′-octanoyloxyethyl-7-(α-2-pyridylbenzylidene)-5-norbornene-2,3-dicarboximide] | 0 | 0 | 20^c % | 87.9 ± 0.7 | 48.5 ± 8.5 | >120^e min | 15 | 6/6 |  |  |  |  |  |  |  |  |  |  |  | 
O=C(C=Cc1ccccc1)OCN1C(=O)C2C3C=C(C(O)(c4ccccc4)c4ccccn4)C(C3=C(c3ccccc3)c3ccccn3)C2C1=O (stereo not drawn) [Compound 19, N-Cinnamoyloxymethyl-5-(α-hydroxy-α-2-pyridylbenzyl)-7-(α-2-pyridylbenzylidene)-5-norbornene-2,3-dicarboximide] |  | 0 |  |  |  | 90^d min | 20 |  | 0 | yes^f | yes^h,i | yes^h,i | 5/5^b | 1/12 | 2/12 |  |  |  |  | 
O=C(OCCN1C(=O)C2C3C=C(C(O)(c4ccccc4)c4ccccn4)C(C3=C(c3ccccc3)c3ccccn3)C2C1=O)c1ccc2ccccc2c1 (stereo not drawn) [Compound 122, 5-(α-Hydroxy-α-2-pyridylbenzyl)-N-[2′-(2″-naphthoyloxy)ethyl]-7-(α-2-pyridylbenzylidene)-5-norbornene-2,3-dicarboximide] | 0 | 0 | 0^c % | 14.4 ± 3.0 | 14.1 ± 0.5 |  |  |  |  | yes^f | yes^h,i | yes^h,i |  |  |  |  |  |  |  | 
O=C(CCC(=O)OCCN1C(=O)C2C3C=C(C(O)(c4ccccc4)c4ccccn4)C(C3=C(c3ccccc3)c3ccccn3)C2C1=O)OCCOC(=O)CCC(=O)OCCN1C(=O)C2C3C=C(C(O)(c4ccccc4)c4ccccn4)C(C3=C(c3ccccc3)c3ccccn3)C2C1=O (stereo not drawn) [Compound 144, N-[2′-Ethylenebis(hydrogensuccinoyloxy)ethyl]-5-(α-hydroxy-α-2-pyridylbenzyl)-7-(α-2-pyridylbenzylidene)-5-norbornene-2,3-dicarboximide dimer] |  |  |  | 14.5 ± 0.8 | <5 |  |  |  |  |  |  |  |  |  |  | 0 | 0 | 0 | no^f | 
5-(α-Hydroxy-α-2-pyridylbenzyl)-N-2′-phenylpropioyloxyethyl-7-(α-2-pyridylbenzylidene)-5-norbornene-2,3-dicarboximide [Compound 123] | 0 | 0 | 0^c % | 84.5 ± 2.0 | 55.6 ± 4.1 | 35^d min | 15 |  |  | yes^f | yes^h,i | yes^h,i |  |  |  |  |  |  |  | 
O=C(C=Cc1ccccc1)OCCCN1C(=O)C2C3C=C(C(O)(c4ccccc4)c4ccccn4)C(C3=C(c3ccccc3)c3ccccn3)C2C1=O (stereo not drawn) [Compound 136, N-3′-Cinnamoyloxypropyl-5-(α-hydroxy-α-2-pyridylbenzyl)-7-(α-2-pyridylbenzylidene)-5-norbornene-2,3-dicarboximide] | 0 | 0 | 0^c % | 76.5 ± 5.7 | 18.2 ± 2.7 | not lethal | 20 |  |  | yes^f |  | yes^h |  |  |  |  |  |  |  | 
O=C(CCCCCCCCC(=O)OCCN1C(=O)C2C3C=C(C(O)(c4ccccc4)c4ccccn4)C(C3=C(c3ccccc3)c3ccccn3)C2C1=O)OCCN1C(=O)C2C3C=C(C(O)(c4ccccc4)c4ccccn4)C(C3=C(c3ccccc3)c3ccccn3)C2C1=O (stereo not drawn) [Compound 141, 5-(α-Hydroxy-α-2-pyridylbenzyl)-7-(α-2-pyridylbenzylidene)-N-2′-sebacoyloxyethyl-5-norbornene-2,3-dicarboximide dimer] |  |  |  | <5 | <5 |  |  |  |  |  |  |  |  |  |  | 0 | 0 | 0 | no^f | 
O=C(CCCCCCCCC(=O)OCN1C(=O)C2C3C=C(C(O)(c4ccccc4)c4ccccn4)C(C3=C(c3ccccc3)c3ccccn3)C2C1=O)OCN1C(=O)C2C3C=C(C(O)(c4ccccc4)c4ccccn4)C(C3=C(c3ccccc3)c3ccccn3)C2C1=O (stereo not drawn) [Compound 24, 5-(α-Hydroxy-α-2-pyridylbenzyl)-7-(α-2-pyridylbenzylidene)-N-sebacoyloxymethyl-5-norbornene-2,3-dicarboximide dimer] |  |  |  | 8.6 ± 0.5 | 6.2 ± 0.2 |  |  |  |  |  |  |  |  |  |  | 0 | 0 | 0 |  | no^e
O=C(OCCN1C(=O)C2C3C=C(C(O)(c4ccccc4)c4ccccn4)C(C3=C(c3ccccc3)c3ccccn3)C2C1=O)C(c1ccccc1)c1ccccc1 (centres unmarked) [Compound 118] | 0 | 0 | 0^c % | <5 | 9.0 ± 0.7 |  |  |  |  | yes^f |  | no^h |  |  |  |  |  |  |  | 
O=C(OCN1C(=O)C2C3C=C(C(O)(c4ccccc4)c4ccccn4)C(C3=C(c3ccccc3)c3ccccn3)C2C1=O)c1ccc2ccccc2c1 (stereo not drawn) [Compound 20, 5-(α-Hydroxy-α-2-pyridylbenzyl)-2′-naphthoyloxymethyl-7-(α-2-pyridylbenzylidene)-5-norbornene-2,3-dicarboximide] | 0 | 0 | 0^c % | 31.3 ± 2.7 | 20.2 ± 0.8 |  |  |  |  | yes^f |  | no^h |  |  |  |  |  |  |  | 

Reference: US9198420B2, “Rodenticidal norbormide analogues” (priority 2012, dated 2015)
